These are literature values, as cited in patent US8354566B2, “Lubricating oil additive and lubricating oil composition containing same” (Chevron Oronite Company LLC, priority 2010, dated 2013).

This series has as its system estrogen-inducible strain of yeast. The settings on record: compared among alkylphenols and with 17β-estradiol.

Molecules are shown by their SMILES.

As to `CC(C)(C)CC(C)(C)c1ccc(O)cc1` [4-tert-octylphenol, 4-(1,1,3,3-Tetramethyl-butyl)-phenol], the estrogenic activity result is given as “highest activity”.
